One may read the EC50 as the concentration at which the effect is half-maximal.

Our source for the Activity and EC50 values is ChEMBL document CHEMBL1649251, “Antischistosomal activity of hexadecyloxypropyl cyclic 9-(S)-[3-hydroxy-2-(phosphonomethoxy)propyl]adenine and other alkoxyalkyl esters of acyclic nucleoside phosphonates assessed by schistosome worm killing in vitro” (Antimicrob Agents Chemother, 2009).

The subject of assay [1] is Schistosoma mansoni. Briefly: Antischistosomal activity against Schistosoma mansoni isolated from infected Syrian golden hamsters assessed as worm mortality at 100 uM treated for overnight followed by drug washout measured on day 5 relative to control. The assay is classed as functional.
The test system of assay [2] is Schistosoma mansoni. Briefly: Antischistosomal activity against Schistosoma mansoni isolated from infected Syrian golden hamsters assessed as worm mortality at 75 uM treated for overnight followed by drug washout measured on day 5 relative to control. The assay is classed as functional.
For assay [3], the system named is Schistosoma mansoni. Put plainly: Antischistosomal activity against Schistosoma mansoni isolated from infected Syrian golden hamsters assessed as worm mortality at 50 uM treated for overnight followed by drug washout measured on day 5 relative to control. The assay is classed as functional.
Assay [4] has as its system Schistosoma mansoni. Briefly: Antischistosomal activity against Schistosoma mansoni isolated from infected Syrian golden hamsters assessed as worm mortality at 25 uM treated for overnight followed by drug washout measured on day 5 relative to control. In kind it is functional.
The test system of assay [5] is Schistosoma mansoni. Put plainly: Antischistosomal activity against Schistosoma mansoni isolated from infected Syrian golden hamsters assessed as worm mortality at 12.5 uM treated for overnight followed by drug washout measured on day 5 relative to control. In kind it is functional.
Assay [6] deals with Schistosoma mansoni. Put plainly: Antischistosomal activity against Schistosoma mansoni isolated from infected Syrian golden hamsters assessed as worm mortality at 5 uM treated for overnight followed by drug washout measured on day 5. The assay is classed as functional.
The test system of assay [7] is Schistosoma mansoni. Briefly: Antischistosomal activity against Schistosoma mansoni isolated from infected Syrian golden hamsters assessed as worm mortality treated for overnight followed by drug washout measured on day 5. In kind it is functional, organism-based. The settings on record: 120 h.

On to `CCCCCCCCCCCCCCCCCCOCCOP(=O)(O)CO[C@H](CO)Cn1cnc2c(N)nc(N)nc21`, for which the Activity turned out to be 40% in the assay on Schistosoma mansoni [1]; 40% in the assay with Schistosoma mansoni [2]; 33% with Schistosoma mansoni [3]; 14% with Schistosoma mansoni [4]; 8% in the assay on Schistosoma mansoni [5]; 7% in the assay with Schistosoma mansoni [6]. In addition, in the assay on Schistosoma mansoni [7], the 50% effective concentration (EC50) was greater than 100 µM.
Regarding `CCCCCCCCCCCCCCCCOCCCOP1(=O)CO[C@@H](Cn2cnc3c(N)ncnc32)CO1` (stereo partly specified), the Activity in the assay with Schistosoma mansoni [1] was determined as 93.3%; in the assay with Schistosoma mansoni [2], 84.6%; in the assay with Schistosoma mansoni [3], 78.6%; in the assay with Schistosoma mansoni [4] it was 69.2%; in the assay on Schistosoma mansoni [5], 53.8%; in the assay on Schistosoma mansoni [6], 50%. Also, the EC50 in the assay with Schistosoma mansoni [7] was found to be 5 µM.
As to `CCCCCCCCCCCCCCCCCCOCCOP(=O)(O)CO[C@H](CO)Cn1cnc2c(=O)[nH]c(N)nc21`, the Activity with Schistosoma mansoni [1] is listed as 33%; in the assay with Schistosoma mansoni [2], 36%; in the assay with Schistosoma mansoni [3], 20%; in the assay with Schistosoma mansoni [4], 15%; in the assay on Schistosoma mansoni [5] it was 7%; in the assay on Schistosoma mansoni [6], 13%. Moreover, the EC50 in the assay on Schistosoma mansoni [7] is greater than 100 µM.
As to `CCCCCCCCCCCCCCCCOCCCOP1(=O)CO[C@@H](Cn2ccc(N)nc2=O)CO1` (stereo partly specified), the Activity with Schistosoma mansoni [1] came to 100%; in the assay with Schistosoma mansoni [2] it was 64%; with Schistosoma mansoni [3] it was 67%; in the assay with Schistosoma mansoni [4], 36%; in the assay on Schistosoma mansoni [5], 33%; in the assay on Schistosoma mansoni [6], 13%. The EC50 with Schistosoma mansoni [7] was 28 µM.
Take `Nc1ncnc2c1ncn2C[C@@H](CO)OCP(=O)(O)O`: the Activity with Schistosoma mansoni [1] worked out at 13%; with Schistosoma mansoni [2], 12.5%; in the assay with Schistosoma mansoni [3], 7%; in the assay on Schistosoma mansoni [4] it was 7%; with Schistosoma mansoni [5] it was 6.25%; in the assay on Schistosoma mansoni [6], 6.7%. For the same molecule, the EC50 with Schistosoma mansoni [7] was greater than 100 µM.
In the case of `CCCCCCCCCCCCCCCCOCCCOP(=O)(O)CO[C@H](CO)Cn1cnc2c(N)ncnc21`, the Activity in the assay on Schistosoma mansoni [1] came out at 30.8%; with Schistosoma mansoni [2], 28.6%; in the assay with Schistosoma mansoni [3], 32.3%; with Schistosoma mansoni [4], 18.8%; with Schistosoma mansoni [5], 12.5%; in the assay with Schistosoma mansoni [6], 6.25%. In addition, the concentration giving a half-maximal response (EC50) in the assay with Schistosoma mansoni [7] was greater than 100 µM.
Take `CCCCCCCCCCCCCCCCCCOCCOP(=O)(O)CO[C@H](CO)Cn1cnc2c(N)ncnc21`: the Activity in the assay with Schistosoma mansoni [1] is reported as 47%; with Schistosoma mansoni [2] it was 33%; with Schistosoma mansoni [3], 40%; in the assay on Schistosoma mansoni [4], 25%; with Schistosoma mansoni [5] it was 12.5%; in the assay on Schistosoma mansoni [6] it was 12.5%. Further, the EC50 in the assay with Schistosoma mansoni [7] was greater than 100 µM.
As for `O=C(C1CCCCC1)N1CC(=O)N2CCc3ccccc3C2C1` (stereo unspecified) [PRAZIQUANTEL], the Activity in the assay with Schistosoma mansoni [1], in the assay on Schistosoma mansoni [2], in the assay with Schistosoma mansoni [3], in the assay with Schistosoma mansoni [4], in the assay on Schistosoma mansoni [5] and in the assay on Schistosoma mansoni [6] was 100% each time. In addition, the EC50 in the assay on Schistosoma mansoni [7] came out at 0.22 µM.
